Square brackets hold non-standard residues; d marks the D form. Peptide text beside a SMILES is read from it. Bip(2'-Et-4'-OMe) = CCc1cc(OC)ccc1-c1ccc(C[C@H](N)C(=O)O)cc1; αMePhe(2-F) = C[C@](N)(Cc1ccccc1F)C(=O)O; hPhe = N[C@@H](CCc1ccccc1)C(=O)O; Aib = CC(C)(N)C(=O)O
Key:
[1] = target: T1, human GLP-1 receptor (Homo sapiens, UniProt P43220); parameters: Dr. Timothy Kieffer (University of British Columbia); method as in Mapelli et al., 2009; Haque et al., 2010a; conditions: CHO cells stably overexpressing the human GLP-1 receptor; ref Mapelli et al., 2009; Haque et al., 2010a; read-out: EC50 (cAMP production); cited from earlier work
[2] = target: T1, human GLP-1 receptor; assay: Competitive binding (IC50) on HEK293-hGLP-1R cells with radioligand [Nle^14, [^125I]Tyr(3-I)^40]exendin-4; parameters: Dr. Timothy Kieffer (University of British Columbia); host or cells: HEK293; conditions: w/ BSA (1% BSA); HEK293-hGLP-1R cells, 4 °C, 2 h, 0.41 nM radioligand; read-out: IC50 ± SD
Procedure: Dr. Timothy Kieffer (University of British Columbia, Vancouver, Canada). Cells were cultivated in high glucose DMEM (25.0 mM D-glucose, 3.97 mM GlutaMAX; REF-number: 61965–026; Fisher Scientific GmbH, Schwerte, Germany) supplemented with 10% fetal bovine serum and 1 mM sodium pyruvate. Medium for stably transfected HEK293-hGLP-1R cells was constantly supplemented with 1 mg/mL Geneticin (G-418 Biochrom, Merck KgaA, Darmstadt, Germany) as selection antibiotic. The cell line was kept at 37 °C in a humidified 5% CO2 atmosphere. One day (24 ± 2 h) prior to all in vitro experiments, the cultivated HEK293-h-GLP-1R cells were harvested using a mixture of trypsin/ethylenediaminetetraacetic acid (0.05%/0.02%) in phosphate-buffered saline (PBS) (Gibco, Germany) and centrifuged at 1300 rpm (ca. 190×g) for 3 min at room temperature (Heraeus Megafuge 16, Thermo Fisher, Germany). After centrifugation, the supernatant was disposed and the cell pellet was resuspended in culture medium. Cells were counted with a Neubauer hemocytometer (Paul Marienfeld GmbH & Co. KG, Lauda-Königshofen, Germany) and seeded in 24-well plates. IC50 values were determined by transferring 1.50 × 10^5 cells/mL per well into 24-well plates.
Detailed information on affinity experiments is provided in the SI. In brief, competitive binding studies were determined on HEK293-hGLP-1R cells (1.50 × 10^5 cells in 1 mL/well) after incubation at 4 °C for 2 hours, using [^125I]Tyr(3-I)^40–3 (0.41 nM/well) as reference radioligand (n = 3).
Dr. Timothy J. Kieffer (University of British Columbia, Vancouver, Canada). Cells were cultivated in high glucose DMEM (25.0 mM D-glucose, 3.97 mM GlutaMAX; REF-number: 61965-026; Fisher Scientific GmbH, Schwerte, Germany) supplemented with 10% fetal bovine serum and 1 mM sodium pyruvate. Medium for stably transfected HEK293-hGLP-1R cells was constantly supplemented with 1 mg/mL Geneticin (G-418 Biochrom, Merck KgaA, Darmstadt, Germany) as selection antibiotic. The cell line was kept at 37 °C in a humidified 5% CO2 atmosphere. One day (24 ± 2 h) prior to all in vitro experiments, the cultivated cells were harvested using a mixture of trypsin/ethylenediaminetetraacetic acid (0.05%/0.02%) in phosphate-buffered saline (PBS) (Merck KgaA, Darmstadt, Germany) and centrifuged at 1300 rpm (ca. 190 × g) for 3 min at room temperature (Heraeus Megafuge 16, Thermo Fisher Scientific, Darmstadt, Germany). After centrifugation, the supernatant was disposed and the cell pellet was resuspended in culture medium. Cells were counted with a Neubauer hemocytometer (Paul Marienfeld GmbH & Co. KG, Lauda-Königshofen, Germany) and seeded in 24-well plates (Greiner Bio-One, Kremsmünster, Austria). IC50 values were determined by transferring 1.50 × 10^5 cells/mL per well into 24-well plates (Greiner Bio-One, Kremsmünster, Austria).
The culture medium was removed and the cells were washed with 500 µL of Hank’s balanced salt solution (HBSS) (Merck KGaA, Darmstadt, Germany), containing 1% bovine serum albumin (BSA) (Merck KGaA, Darmstadt, Germany). Afterwards, 200 µL of HBSS (1% BSA) were added to each well and equilibrated on ice (4 °C) for 15 min. 25 µL/well of either HBSS (1% BSA) (= control) or of solutions, containing the respective unlabeled ligand in increasing concentrations (10^-10 - 10^-4 M in HBSS) were added, followed by the addition of 25 µL of [Nle^14, [^125I]Tyr(3-I)^40]exendin-4 in HBSS (1% BSA) to each well. Experiments were carried out in triplicates for each concentration. The final concentrations of unlabeled ligand ranged from 10^-11 - 10^-5 M and the final radioligand concentration was 0.41 nM in all binding assays. The cells were incubated for two hours at 4 °C. Incubation was terminated by removal of the incubation medium. The cells were washed with 250 µL of HBSS (1% BSA) and the wash medium was combined with the respective supernatant. This fraction represents the amount of free radioligand. The cells were lysed by addition of 250 µL of 1 M aqueous NaOH. […]

T1 sequence (P43220 24-463): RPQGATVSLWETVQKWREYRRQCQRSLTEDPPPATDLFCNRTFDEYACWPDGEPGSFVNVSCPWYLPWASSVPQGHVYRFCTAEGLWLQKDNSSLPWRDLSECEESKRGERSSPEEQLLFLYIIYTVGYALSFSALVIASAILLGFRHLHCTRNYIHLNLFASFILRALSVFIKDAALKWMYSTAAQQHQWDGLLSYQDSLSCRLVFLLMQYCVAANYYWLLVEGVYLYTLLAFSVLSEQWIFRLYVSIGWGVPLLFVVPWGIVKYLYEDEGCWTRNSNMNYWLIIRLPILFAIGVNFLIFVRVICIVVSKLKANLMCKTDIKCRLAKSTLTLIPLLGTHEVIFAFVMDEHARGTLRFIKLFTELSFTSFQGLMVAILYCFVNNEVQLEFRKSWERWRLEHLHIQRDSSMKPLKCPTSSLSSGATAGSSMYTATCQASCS

- IC50 [2]: 669 ± 242 nM
SMILES: CCc1cc(OC)ccc1-c1ccc(C[C@H](NC(=O)[C@H](CC(=O)O)NC(=O)[C@H](CO)NC(=O)[C@@H](NC(=O)[C@](C)(Cc2ccccc2F)NC(=O)[C@@H](NC(=O)CNC(=O)[C@H](CCC(=O)O)NC(=O)C(C)(C)NC(=O)[C@@H](N)Cc2c[nH]cn2)[C@@H](C)O)[C@@H](C)O)C(=O)N[C@@H](CCc2ccccc2)C(N)=O)cc1 [Peptide 1, H-L-His-Aib-L-Glu-Gly-L-Thr-L-(α-Me)Phe(2-F)-L-Thr-L-Ser-L-Asp-L-(2’-Et, 4’-OMe)BIP-L-homoPhe-NH2, reference compound] (H-H[Aib]EGT[αMePhe(2-F)]TSD[Bip(2'-Et-4'-OMe)][hPhe]-NH2)
- EC50 [1]: 0.031 nM

— paper PMC8387526, “Small peptide-based GLP-1R ligands: an approach to reduce the kidney uptake of radiolabeled GLP-1R-targeting agents?” (EJNMMI Radiopharmacy and Chemistry, 2021)
